According to publication PMC7587356, “High-Throughput Screening for Inhibitors of the SARS-CoV-2 Protease Using a FRET-Biosensor” (Molecules, 2020):
Counter-ions that a name gives are not always drawn. Like-named read-outs stand apart in the source and are kept apart here.

Target: SARS-CoV-2 3CLpro (Severe acute respiratory syndrome coronavirus 2, UniProt P0DTD1)
Experiment: biochemical
Type: biochemical
Design: Replicate_1 / Replicate_2 / mean / mean (LOPAC_screen_w_protease): unit not given here
Settings: for inhibition at 5 µM: 4 h
[1] = sheet LOPAC_screen_w_protease, LOPAC1280 primary screen with protease, 5 µM compound, mean of the two replicates
[2] = sheet LOPAC_screen_w_protease, LOPAC1280 primary screen with protease, 5 µM compound, replicate 1
[3] = sheet LOPAC_screen_w_protease, LOPAC1280 primary screen with protease, 5 µM compound, replicate 2
[4] = LOPAC1280 primary screen with protease, 5 µM compound, mean of the two replicates
[5] = LOPAC1280 primary screen with protease, 5 µM compound, replicate 1
[6] = LOPAC1280 primary screen with protease, 5 µM compound, replicate 2
[7] = LOPAC1280 primary screen with protease, 5 µM compound, mean of two replicates
[8] = read-out: Replicate_1 (LOPAC_screen_w_protease)
[9] = read-out: Replicate_2 (LOPAC_screen_w_protease)
[10] = sheet LOPAC_screen_w_protease, primary screen of LOPAC1280 at 5 µM with protease, mean of the two replicates
[11] = sheet LOPAC_screen_w_protease, primary screen of LOPAC1280 at 5 µM with protease, replicate 1
[12] = sheet LOPAC_screen_w_protease, primary screen of LOPAC1280 at 5 µM with protease, replicate 2
[13] = sheet LOPAC_screen_w_protease, primary screen of LOPAC1280 at 5 µM with protease, mean of the two replicates, read-out: mean
[14] = sheet LOPAC_screen_w_protease, primary screen of LOPAC1280 at 5 µM with protease, replicate 1, read-out: Replicate_1
[15] = sheet LOPAC_screen_w_protease, primary screen of LOPAC1280 at 5 µM with protease, replicate 2, read-out: Replicate_2
[16] = sheet LOPAC_screen_w_protease, primary screen with protease, compound at 5 µM, mean of two replicates, read-out: mean
[17] = sheet LOPAC_screen_w_protease, primary screen with protease, compound at 5 µM, replicate 1, read-out: Replicate_1
[18] = sheet LOPAC_screen_w_protease, primary screen with protease, compound at 5 µM, replicate 2, read-out: Replicate_2
[19] = LOPAC1280 primary screen with protease, 5 µM compound, replicate 1, read-out: Replicate_1 (LOPAC_screen_w_protease)
[20] = LOPAC1280 primary screen with protease, 5 µM compound, replicate 2, read-out: Replicate_2 (LOPAC_screen_w_protease)

SMILES: Clc1ccc(N2C[C@H]3CC[C@@H](C2)N3)nn1 [DBO-83]
- mean [1]: 6.059
- Replicate_1 [2]: 7.536
- Replicate_2 [3]: 4.581

SMILES: CCn1c(=O)[nH]c2cc(Cl)c(Cl)cc21 [DCEBIO]
- mean (LOPAC_screen_w_protease) [4]: 1.96
- Replicate_1 (LOPAC_screen_w_protease) [5]: 3.009
- Replicate_2 (LOPAC_screen_w_protease) [6]: 0.9113

SMILES: CCC(=O)N1CCN(C(=O)c2ccccc2)CC1 [DM 235]
- mean (LOPAC_screen_w_protease) [7]: 1.365
- Replicate_1 (LOPAC_screen_w_protease) [5]: 0.6823
- Replicate_2 (LOPAC_screen_w_protease) [6]: 2.048

SMILES: O=[N+]([O-])c1cc2nc(O)c(O)nc2cc1[N+](=O)[O-] [DNQX]
- Replicate_1: 2.956
- Replicate_2: 2.135
- mean: 2.546

SMILES: CCN(CCCl)Cc1ccccc1Br.Cl [DSP-4 hydrochloride]
- mean [1]: 6.32
- Replicate_1 [2]: 6.498
- Replicate_2 [3]: 6.142

SMILES: O=c1c(-c2ccc(O)cc2)coc2cc(O)ccc12 [Daidzein]
- inhibition at 5 µM (read-out: Replicate_1): 5.3%
- inhibition at 5 µM (read-out: Replicate_2): 1.03%
- inhibition at 5 µM (read-out: mean): 3.16%

SMILES: C#C[C@]1(O)CC[C@H]2[C@@H]3CCC4=Cc5oncc5C[C@]4(C)[C@H]3CC[C@@]21C [Danazol]
- inhibition at 5 µM (sheet LOPAC_screen_w_protease, primary screen with protease, mean of two replicates, read-out: mean): 2.5%
- inhibition at 5 µM (sheet LOPAC_screen_w_protease, primary screen with protease, replicate 1, read-out: Replicate_1): 4.08%
- inhibition at 5 µM (sheet LOPAC_screen_w_protease, primary screen with protease, replicate 2, read-out: Replicate_2): 0.911%

SMILES: N=C(N)N1CCc2ccccc2C1 [Debrisoquin sulfate]
- inhibition at 5 µM (read-out: Replicate_1): 2.87%
- inhibition at 5 µM (read-out: Replicate_2): 3.04%
- inhibition at 5 µM (read-out: mean): 2.96%

SMILES: C[N+](C)(C)CCCCCCCCCC[N+](C)(C)C.[Br-].[Br-] [Decamethonium dibromide]
- mean (sheet LOPAC_screen_w_protease, LOPAC1280 at 5 µM, mean of two replicates): 1.23
- Replicate_1 (sheet LOPAC_screen_w_protease, LOPAC1280 at 5 µM, replicate 1): 2.965
- Replicate_2 (sheet LOPAC_screen_w_protease, LOPAC1280 at 5 µM, replicate 2): -0.5048

SMILES: CN(C)[C@@H]1C(O)=C(C(N)=O)C(=O)[C@@]2(O)C(O)=C3C(=O)c4c(O)ccc(Cl)c4[C@@H](O)[C@H]3C[C@@H]12 [Demeclocycline hydrochloride]
- inhibition at 5 µM (sheet LOPAC_screen_w_protease, LOPAC1280 primary screen with protease, 5 µM compound, mean of the two replicates, read-out: mean): 4.52%
- inhibition at 5 µM (sheet LOPAC_screen_w_protease, LOPAC1280 primary screen with protease, 5 µM compound, replicate 1, read-out: Replicate_1): 7.2%
- inhibition at 5 µM (sheet LOPAC_screen_w_protease, LOPAC1280 primary screen with protease, 5 µM compound, replicate 2, read-out: Replicate_2): 1.84%

SMILES: Cc1cc(N)c2ccccc2[n+]1CCCCCCCCCCCCCC[n+]1c(C)cc(N)c2ccccc21.[I-].[I-] [Dequalinium analog, C-14 linker]
- mean (LOPAC screen with protease) (sheet LOPAC_screen_w_protease, primary screen at 5 µM, mean of two replicates): 11.1281
- Replicate_1 (LOPAC screen with protease) (sheet LOPAC_screen_w_protease, primary screen at 5 µM, replicate 1): 10.1675
- Replicate_2 (LOPAC screen with protease) (sheet LOPAC_screen_w_protease, primary screen at 5 µM, replicate 2): 12.0887

SMILES: Cc1cc(N)c2ccccc2[n+]1CCCCCCCCCC[n+]1c(C)cc(N)c2ccccc21 [Dequalinium dichloride]
- inhibition at 5 µM (read-out: Replicate_1): 2.94%
- inhibition at 5 µM (read-out: Replicate_2): 1.41%
- inhibition at 5 µM (read-out: mean): 2.17%

SMILES: CNCCCN1c2ccccc2CCc2ccccc21 [Desipramine hydrochloride]
- mean (LOPAC_screen_w_protease): 1.646
- inhibition at 5 µM [8]: 1.71%
- inhibition at 5 µM [9]: 1.58%

SMILES: O=c1c2ccccc2[nH]c(=S)n1CCN1CCC(=C(c2ccc(F)cc2)c2ccc(F)cc2)CC1 [Diacylglycerol Kinase Inhibitor II]
- inhibition at 5 µM (sheet LOPAC_screen_w_protease, LOPAC1280 primary screen at 5 µM, with protease, mean of two replicates, read-out: mean): -3.62%
- inhibition at 5 µM (sheet LOPAC_screen_w_protease, LOPAC1280 primary screen at 5 µM, with protease, replicate 1, read-out: Replicate_1): -4.63%
- inhibition at 5 µM (sheet LOPAC_screen_w_protease, LOPAC1280 primary screen at 5 µM, with protease, replicate 2, read-out: Replicate_2): -2.61%

SMILES: Cc1nc2sccn2c(=O)c1CCN1CCC(=C(c2ccccc2)c2ccc(F)cc2)CC1 [Diacylglycerol kinase inhibitor I]
- mean [10]: 3.623
- Replicate_1 [11]: 4.4123
- Replicate_2 [12]: 2.833

SMILES: CC1=NS(=O)(=O)c2cc(Cl)ccc2N1 [Diazoxide]
- inhibition at 5 µM [13]: 3.37%
- inhibition at 5 µM [14]: 4.67%
- inhibition at 5 µM [15]: 2.07%

SMILES: O=C(O)Cc1ccccc1Nc1c(Cl)cccc1Cl [Diclofenac sodium]
- mean (LOPAC_screen_w_protease): 1.426
- inhibition at 5 µM [8]: 3.59%
- inhibition at 5 µM [9]: -0.743%

SMILES: O=C(O)CN(CCN(CC(=O)O)CC(=O)O)CCN(CC(=O)O)CC(=O)O [Diethylenetriaminepentaacetic acid]
- mean [10]: 3.2
- Replicate_1 [11]: 5.3521
- Replicate_2 [12]: 1.048

SMILES: Br.CO[C@H]1CC=C2CCN3CCC4=C(CC(=O)OC4)[C@]23C1 [Dihydro-beta-erythroidine hydrobromide]
- mean (LOPAC_screen_w_protease) [4]: 2.038
- Replicate_1 (LOPAC_screen_w_protease) [5]: 1.621
- Replicate_2 (LOPAC_screen_w_protease) [6]: 2.454

SMILES: COc1cc(CNC(=O)CCCCCCC(C)C)ccc1O [Dihydrocapsaicin]
- inhibition at 5 µM [16]: 3.14%
- inhibition at 5 µM [17]: 4.91%
- inhibition at 5 µM [18]: 1.38%

SMILES: CC(C)[C@@]1(NC(=O)[C@@H]2C[C@@H]3c4cccc5[nH]cc(c45)C[C@H]3N(C)C2)O[C@@]2(O)[C@@H]3CCCN3C(=O)[C@H](Cc3ccccc3)N2C1=O.CS(=O)(=O)O [Dihydroergocristine methanesulfonate]
- mean (sheet LOPAC_screen_w_protease, primary screen with protease, compound at 5 µM, mean of two replicates): 2.761
- Replicate_1 (sheet LOPAC_screen_w_protease, primary screen with protease, compound at 5 µM, replicate 1): 2.962
- Replicate_2 (sheet LOPAC_screen_w_protease, primary screen with protease, compound at 5 µM, replicate 2): 2.561

SMILES: CN1C[C@H](C(=O)N[C@]2(C)O[C@@]3(O)[C@@H]4CCCN4C(=O)[C@H](Cc4ccccc4)N3C2=O)C[C@@H]2c3cccc4[nH]cc(c34)C[C@H]21 [Dihydroergotamine methanesulfonate]
- inhibition at 5 µM [19]: 2.09%
- inhibition at 5 µM [20]: 1.52%
- mean (LOPAC_screen_w_protease) [4]: 1.805

SMILES: CC(C)[C@H]1CN[C@H](C(=O)O)[C@H]1CC(=O)O [Dihydrokainic acid]
- mean (sheet LOPAC_screen_w_protease, LOPAC1280 primary screen at 5 µM, with protease, mean of the two replicates): 0.7305
- Replicate_1 (sheet LOPAC_screen_w_protease, LOPAC1280 primary screen at 5 µM, with protease, replicate 1): 1.689
- Replicate_2 (sheet LOPAC_screen_w_protease, LOPAC1280 primary screen at 5 µM, with protease, replicate 2): -0.2284

SMILES: C[C@@H]1O[C@@H](O[C@H]2C[C@@H](O)[C@]3(CO)[C@H]4[C@H](O)C[C@]5(C)[C@@H]([C@@H]6COC(=O)C6)CC[C@]5(O)[C@@H]4CC[C@]3(O)C2)[C@H](O)[C@H](O)[C@H]1O [Dihydroouabain]
- mean [10]: 3.947
- Replicate_1 [11]: 5.984
- Replicate_2 [12]: 1.91

SMILES: COc1cc(C(=O)OCCCN2CCCN(CCCOC(=O)c3cc(OC)c(OC)c(OC)c3)CC2)cc(OC)c1OC [Dilazep hydrochloride]
- inhibition at 5 µM [13]: 3.29%
- inhibition at 5 µM [14]: 2.23%
- inhibition at 5 µM [15]: 4.35%

SMILES: CN(C)CCOC(c1ccccc1)c1ccccc1 [Diphenhydramine hydrochloride]
- inhibition at 5 µM [19]: 2.14%
- inhibition at 5 µM [20]: 1.54%
- mean (LOPAC_screen_w_protease) [4]: 1.841

SMILES: c1ccc2c(c1)[I+]c1ccccc1-2 [Diphenyleneiodonium chloride]
- inhibition at 5 µM (read-out: Replicate_1): 3.49%
- inhibition at 5 µM (read-out: Replicate_2): 2.49%
- inhibition at 5 µM (read-out: mean): 2.99%

SMILES: CCCN(CCC)CCc1ccc(O)c(O)c1 [Dipropyldopamine hydrobromide]
- inhibition at 5 µM [19]: 3.8%
- inhibition at 5 µM [20]: 0.246%
- mean (LOPAC_screen_w_protease) [4]: 2.021

SMILES: CC(C)N(CCC(C(N)=O)(c1ccccc1)c1ccccn1)C(C)C (stereo not drawn) [Disopyramide phosphate]
- inhibition at 5 µM [16]: 2.74%
- inhibition at 5 µM [17]: 4.07%
- inhibition at 5 µM [18]: 1.41%

SMILES: CC(C)N(CCC(C(N)=O)(c1ccccc1)c1ccccn1)C(C)C (stereo not drawn) [Disopyramide]
- inhibition at 5 µM [13]: 3.48%
- inhibition at 5 µM [14]: 4.56%
- inhibition at 5 µM [15]: 2.4%

SMILES: CC(CCc1ccc(O)cc1)NCCc1ccc(O)c(O)c1 (stereo not drawn) [Dobutamine hydrochloride]
- inhibition at 5 µM [19]: 2.05%
- inhibition at 5 µM [20]: 2.06%
- mean (LOPAC_screen_w_protease) [4]: 2.053

SMILES: NCCc1ccc(O)c(O)c1 [Dopamine hydrochloride]
- inhibition at 5 µM (read-out: Replicate_1 (LOPAC screen with protease)): 16.2%
- inhibition at 5 µM (read-out: Replicate_2 (LOPAC screen with protease)): 14.6%
- inhibition at 5 µM (read-out: mean (LOPAC screen with protease)): 15.4%

SMILES: COc1cc2nc(N3CCN(C(=O)C4COc5ccccc5O4)CC3)nc(N)c2cc1OC (stereo not drawn) [Doxazosin mesylate]
- inhibition at 5 µM [19]: 3.96%
- inhibition at 5 µM [20]: -0.00681%
- mean (LOPAC_screen_w_protease) [4]: 1.977

SMILES: CN(C)CCC=C1c2ccccc2COc2ccccc21 [Doxepin hydrochloride]
- inhibition at 5 µM [19]: 1.2%
- inhibition at 5 µM [20]: 1.88%
- mean (LOPAC_screen_w_protease) [7]: 1.543
